Reference: US6906100B2, “Compounds and compositions derived from olives and methods of the use thereof” (Lavipharm S.A., priority 2002, dated 2005)

What was measured:
Jurkat cells = test: comet assay (single cell gel electrophoresis): protection of DNA of intact cells exposed to H2O2; format: cell-based; conditions: H2O2 generated by glucose oxidase; for protective activity on cells against oxidative stress (decrease of induced DNA damage): 10 min exposure
Description: In the analysis of the antioxidant activity of the extracts I, II, III and IV, as well as, of the pure Compounds 1-9, a method based on measuring the relative protection of DNA of intact cells was performed. This was done with the use of Jurkat cell cultures (a cell line of T-lymph-cells), which were grown in RPMI-1640 enriched with fetal bovine calf serum (10%), penicillin, streptomycin and glutamine. The cells were incubated with the extracts or the purified compounds in the presence of glucose oxidase (60 ng/100 ml) used for the generation of H2O2. After exposure of the cells to H2O2 for 10 min, the degree of DNA damage was evaluated using a specialized method, “single cell gel electrophoresis”, also known as the “comet assay”. The comet assay method is described in the following references: 1. Barbouti A. et al., “DNA Damage And Apoptosis In Hydrogen Peroxide-Exposed Jurkat Cells: Bolus Addition Versus Continuous Generation Of H2O2,” Free Radical Biology and Medicine, 33(5): 691-702, Elsevier Press (2002); as well as Panagiotidis M. et al. (1999) Free Radical Biology and Medicine, 26(5-6): 548-556; Doulias P-T. et al. (2001) Free Radical Biology and Medicine, 30(6): 679-685; Tselepis A. et al. (2001) Free Radical Biology and Medicine, 30(12): 1357-1364; and Barbouti A. et al. (2001) Free Radical Biology and Medicine, 31(4): 490-498 5.
Jurkat cells—a cell line of lymphocytic origin—were exposed to continuously generated hydrogen peroxide, H2O2 and the effects of this treatment on cellular DNA was evaluated according to the references above. […]
The graphic results of the “comet assay” for the waste water extract (IV) and tyrosol (Compound 4), 2-(5-ethylidene-2-oxo-tetrahydropyran-4-yl) acetic acid (from the compound class of lactones or Compound 6) and hydroxytyrosol (Compound 7) are depicted below in FIGS. 3-6, respectively. […] The values are expressed as mean ±SD (n=3).

[1] = antioxidant ability by usual chemical methods (e.g. DPPH)

SMILES | protective activity on cells against oxidative stress (decrease of induced DNA damage) (Jurkat cells) | dose dependence of protection (Jurkat cells) | antioxidant ability [1]
OCCc1ccc(O)cc1 [tyrosol, Tyrosol] | not |  | 
CC=C1COC(=O)CC1CC(=O)O (stereo not shown) [2-(5-ethylidene-2-oxo-tetrahydropyran-4-yl) acetic acid] | strong protective activity | dose-dependent protection | does not show any antioxidant ability
